From PMC8633346, “Engineering of a fluorescent chemogenetic reporter with tunable color for advanced live-cell imaging” (Nature Communications, 2021)

These compounds were tested against T1, pFAST (Halorhodospira halophila, UniProt P16113, K17N/G21E/G25R/A30V/Q41L/C69G/S72T/V83A/Y94W/F96I/D97P/Y98T/Q99S/M100R/T101G/M109L/S117R) (assay: fluorescence titration, one-site fit). Conditions: PBS pH 7.4.
T1 construct: gene pyp; engineered PYP variant; changes relative to FAST: K17N, G21E, G25R, A30V, Q41L, S72T, V83A, M95T, M109L, S117R (M95T restores T95 of PYP); N-terminal His-tag, E. coli Rosetta (DE3) pLys, Ni-NTA; FAST 14 kDa
T1 sequence (P16113 1-125 K17N/G21E/G25R/A30V/Q41L/C69G/S72T/V83A/Y94W/F96I/D97P/Y98T/Q99S/M100R/T101G/M109L/S117R): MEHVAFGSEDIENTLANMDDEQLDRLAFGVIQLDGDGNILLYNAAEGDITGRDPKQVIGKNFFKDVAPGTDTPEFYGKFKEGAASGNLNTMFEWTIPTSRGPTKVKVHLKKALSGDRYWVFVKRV
Format: binding

Structure (SMILES)	KD
Cc1cc(C=C2SC(=O)NC2=O)ccc1O [HBT-3M, (4-hydroxy-3-methylbenzylidene)thiazolidine-2,4-dione]	KD) values of their assembly with pFAST are indicated into brackets

Each compound was assayed against T2, pFAST (Halorhodospira halophila, UniProt P16113, A30V/C69G/D97P/F96I/G21E/G25R/K17N/M100R/M109L/Q41L/Q99S/S117R/S72T/T101G/V83A/Y94W/Y98T) (assay: fluorescence titration, one-site fit). Conditions: not given.
T2 construct: gene pyp; engineered PYP variant; changes relative to FAST: K17N, G21E, G25R, A30V, Q41L, S72T, V83A, M95T, M109L, S117R (M95T restores T95 of PYP); N-terminal His-tag, E. coli Rosetta (DE3) pLys, Ni-NTA; FAST 14 kDa
T2 sequence (P16113 1-125 K17N/G21E/G25R/A30V/Q41L/C69G/S72T/V83A/Y94W/F96I/D97P/Y98T/Q99S/M100R/T101G/M109L/S117R): T1 sequence (P16113 1-125 K17N/G21E/G25R/A30V/Q41L/C69G/S72T/V83A/Y94W/F96I/D97P/Y98T/Q99S/M100R/T101G/M109L/S117R)

Structure (SMILES)	Kd
COc1cc(C=C2SC(O)=NC2=S)cc(OC)c1O [HBIR-3,5DOM, (4-hydroxy-3,5-dimethoxylbenzylidene)-4-thioxothiazolidin-2-one]	40 nM
Cc1cc(C=C2SC(=S)NC2=O)cc(C)c1O [HBR-3,5DM, 4-hydroxy-3,5-dimethylbenzylidene rhodanine]	10 nM
Cc1cc(C=C2OC(=O)NC2=O)ccc1O [HBO-3M, (4-hydroxy-3-methylbenzylidene)oxazolidine-2,4-dione]	430 nM
Cc1cc(C=C2OC(=O)NC2=O)cc(C)c1O [HBO-3,5DM, (4-hydroxy-3,5-dimethylbenzylidene)oxazolidine-2,4-dione]	2400 nM
Cc1cc(/C=C2\SC(=S)N(CC(=O)O)C2=O)cc(C)c1O [HBRAA-3,5DM, 5-((4-hydroxy-3,5-dimethylbenzylidene)-4-oxo-2-thioxothiazolidin-3-yl) acetic acid]	1800 nM
Cc1cc(C=C2SC(=N)NC2=O)ccc1O [HBP-3M, (4-hydroxy-3-methylbenzylidene)-2-iminothiazolidin-4-one]	220 nM
Cc1cc(C=C2SC(=N)NC2=O)cc(C)c1O [HBP-3,5DM, (4-hydroxy-3,5-dimethylbenzylidene)-2-iminothiazolidin-4-one]	150 nM
COc1cc(C=C2SC(=N)NC2=O)cc(OC)c1O [HBP-3,5DOM, (4-hydroxy-3,5-dimethoxybenzylidene)-2-iminothiazolidin-4-one]	1900 nM
Cc1cc(C=C2SC(=O)NC2=O)cc(C)c1O [HBT-3,5DM, (4-hydroxy-3,5-dimethylbenzylidene)thiazolidine-2,4-dione]	170 nM
COc1cc(C=C2SC(=S)NC2=O)cc(OC)c1O [HBR-3,5DOM, 4-hydroxy-3,5-dimethoxybenzylidene rhodanine]	60 nM
COc1cc(/C=C2\SC(=O)NC2=O)cc(OC)c1O [HBT-3,5DOM, (4-hydroxy-3,5-dimethoxybenzylidene)thiazolidine-2,4-one]	200 nM
